Results from patent US11052092B2, “N-{[2-(piperidin-1-yl)phenyl](phenyl)methyl}-2-(3-oxo-3,4-dihydro-2H-1,4-benzoxazin-7-yl)acetamide derivatives and related compounds as ROR-gamma modulators for treating autoimmune diseases” (Genfit, priority 2017, dated 2021).
Counter-ions that a name gives are not always drawn.

Biological target: T1, human RORγt (Homo sapiens, UniProt P51449)
T1 construct: the full-length cDNA of human RORγt; expressed in transfected cells; host or cells: COS-7 (monkey kidney)
T1 sequence (P51449 1-497 isoform P51449-2): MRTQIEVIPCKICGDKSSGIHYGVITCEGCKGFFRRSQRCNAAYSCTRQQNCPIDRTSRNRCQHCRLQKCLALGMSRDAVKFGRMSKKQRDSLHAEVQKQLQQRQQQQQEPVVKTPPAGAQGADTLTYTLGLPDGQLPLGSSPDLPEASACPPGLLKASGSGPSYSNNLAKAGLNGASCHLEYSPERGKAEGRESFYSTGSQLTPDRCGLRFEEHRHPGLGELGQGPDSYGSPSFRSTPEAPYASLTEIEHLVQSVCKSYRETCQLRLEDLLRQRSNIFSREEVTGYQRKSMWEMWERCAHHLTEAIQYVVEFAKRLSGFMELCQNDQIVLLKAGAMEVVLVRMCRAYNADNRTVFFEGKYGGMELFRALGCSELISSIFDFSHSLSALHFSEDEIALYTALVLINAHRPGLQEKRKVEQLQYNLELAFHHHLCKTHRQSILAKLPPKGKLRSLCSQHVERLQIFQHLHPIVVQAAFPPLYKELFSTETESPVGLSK
Test: RORE Luciferase/RORγt transactivation assay
Format: cell-based
Conditions: COS-7 cells transfected with human IL-17 promoter luciferase reporter and RORγt plasmid; 20 h with compound; read-out: IC50, RORγt activity inhibition
How it was run: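 COS-7 cells were transiently co-transfected with a human IL-17 promoter (RORE/CNS)–luciferase reporter and a RORγt expression plasmid, then seeded at 10000 cells/well in serum-free, phenol red-free DMEM. Compounds were added at 0.3% DMSO final. Luciferase was read with Steady-Glo, and IC50 and Emax were derived.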

| IC50 [nM] | Structure (SMILES) |
| --- | --- |
| 10 to 100 | Cc1ccc(C(NC(=O)C2(c3ccc4c(c3)CCN4)CC2)c2ccc(C)o2)c(C)c1 (stereo not drawn) [Cpd. 142, 1-(2,3-dihydro-1H-indol-5-yl)-N-[(2,4-dimethylphenyl)(5-methylfuran-2-yl)methyl]cyclopropane-1-carboxamide] |
| 10 to 100 | Cc1ccc(C(NC(=O)Cc2ccc3c(c2)C(C)C(=O)N3)c2ccc(C)o2)c(N2CCCCC2)c1 (stereo not drawn) [Cpd. 49, N-{[4-methyl-2-(piperidin-1-yl)phenyl](5-methylfuran-2-yl)methyl}-2-(3-methyl-2-oxo-2,3-dihydro-1H-indol-5-yl)acetamide] |

Tested on: not given
Test: not given
Conditions: not given

| melting point [°C] | Structure (SMILES) |
| --- | --- |
| 57 | Cc1ccc(C(NC(=O)C2(c3ccc4c(c3)CCN4)CC2)c2ccc(C)o2)c(C)c1 (stereo not drawn) [Cpd. 142, 1-(2,3-dihydro-1H-indol-5-yl)-N-[(2,4-dimethylphenyl)(5-methylfuran-2-yl)methyl]cyclopropane-1-carboxamide] |
| 102 | Cc1ccc(C(NC(=O)Cc2ccc3c(c2)C(C)C(=O)N3)c2ccc(C)o2)c(N2CCCCC2)c1 (stereo not drawn) [Cpd. 49, N-{[4-methyl-2-(piperidin-1-yl)phenyl](5-methylfuran-2-yl)methyl}-2-(3-methyl-2-oxo-2,3-dihydro-1H-indol-5-yl)acetamide] |
| 68 | Cc1ccc(C(NC(=O)C2(c3ccc4c(c3)CCC4=NO)CC2)c2ccc(C)o2)c(C)c1 (stereo not drawn) (as salt: HCl) [Cpd. 165, N-[(2,4-dimethylphenyl)(5-methylfuran-2-yl)methyl]-1-[1-(hydroxyimino)-2,3-dihydro-1H-inden-5-yl]cyclopropane-1-carboxamide] |
| 95 | Cc1ccc(C(NC(=O)C2(c3ccc4[nH]cc(CCO)c4c3)CC2)c2ccc(C)o2)c(N2CCCCC2)c1 (stereo not drawn) (as salt: HCl) [Cpd. 66, 1-[3-(2-hydroxyethyl)-1H-indol-5-yl]-N-{[4-methyl-2-(piperidin-1-yl)phenyl](5-methylfuran-2-yl)methyl}cyclopropane-1-carboxamide] |
| 102 | Cc1ccc(C(NC(=O)C2(c3ccc4c(c3)OCS(=O)(=O)N4)CC2)c2ccc(Cl)o2)c(C)c1 (stereo not drawn) (as salt: HCl) [Cpd. 149, N-[(5-chlorofuran-2-yl)(2,4-dimethylphenyl)methyl]-1-(2,2-dioxo-1,3-dihydro-4,2,1-benzoxathiazin-6-yl)cyclopropane-1-carboxamide] |
| 85 | Cc1ccc(C(NC(=O)C2(c3ccc4c(c3)CC(=O)N4)CC2)c2ccc(C)o2)c(C)c1 (stereo not drawn) (as salt: HCl) [Cpd. 61, N-[(2,4-dimethylphenyl)(5-methylfuran-2-yl)methyl]-1-(2-oxo-2,3-dihydro-1H-indol-5-yl)cyclopropane-1-carboxamide] |
| 139 | Cc1ccc(C(NC(=O)Cc2ccc3[nH]cc(C(=O)CS(C)(=O)=O)c3c2)c2ccc(C)o2)c(N2CCCCC2)c1 (stereo not drawn) (as salt: HCl) [Cpd. 103, 2-[3-(2-methanesulfonylacetyl)-1H-indol-5-yl]-N-{[4-methyl-2-(piperidin-1-yl)phenyl](5-methylfuran-2-yl)methyl}acetamide] |
| 68 | Cc1ccc(C(NC(=O)Cc2ccc3[nH]cc(C)c3c2)c2ccc(C)o2)c(N2CCCCC2)c1 (stereo not drawn) (as salt: HCl) [Cpd. 64, 2-(3-methyl-1H-indol-5-yl)-N-{[4-methyl-2-(piperidin-1-yl)phenyl](5-methylfuran-2-yl)methyl}acetamide] |
| 94 | Cc1ccc(C(NC(=O)C2(c3ccc4c(c3)OCC(=O)N4)CC2)c2cccc(C)n2)c(C)c1 (stereo not drawn) (as salt: HCl) [Cpd. 136, N-[(2,4-dimethylphenyl)(6-methylpyridin-2-yl)methyl]-1-(3-oxo-3,4-dihydro-2H-1,4-benzoxazin-7-yl)cyclopropane-1-carboxamide] |
| 85 | Cc1ccc(C(NC(=O)Cc2ccc3ccn(C(=O)N4CCOCC4)c3c2)c2ccc(C)o2)c(N2CCCCC2)c1 (stereo not drawn) (as salt: HCl) [Cpd. 114, N-{[4-methyl-2-(piperidin-1-yl)phenyl](5-methylfuran-2-yl)methyl}-2-[1-(morpholine-4-carbonyl)-1H-indol-6-yl]acetamide] |
| 80 | Cc1ccc(C(NC(=O)Cc2ccc3[nH]cc(CCO)c3c2)c2ccc(C)o2)c(N2CCCCC2)c1 (stereo not drawn) (as salt: HCl) [Cpd. 57, 2-[3-(2-hydroxyethyl)-1H-indol-5-yl]-N-{[4-methyl-2-(piperidin-1-yl)phenyl](5-methylfuran-2-yl)methyl}acetamide] |
| 206 | Cc1ccc(C(NC(=O)Cc2ccc3[nH]cc(C(=O)CS(C)(=O)=O)c3c2)c2ccc(C)o2)c(Br)c1 (stereo not drawn) (as salt: HCl) [Cpd. 104, N-[(2-bromo-4-methylphenyl)(5-methylfuran-2-yl)methyl]-2-[3-(2-methanesulfonylacetyl)-1H-indol-5-yl]acetamide] |
| 84 | Cc1ccc(C(NC(=O)C2(c3ccc4c(n3)OCC(=O)N4)CC2)c2ccc(C)o2)c(C)c1 (stereo not drawn) (as salt: HCl) [Cpd. 144, N-[(2,4-dimethylphenyl)(5-methylfuran-2-yl)methyl]-1-{2-oxo-1H,2H,3H-pyrido[2,3-b][1,4]oxazin-6-yl}cyclopropane-1-carboxamide] |
| 68 | Cc1ccc(C(NC(=O)C2(c3ccc4c(c3)CN(S(C)(=O)=O)C4)CC2)c2ccc(Cl)o2)c(C)c1 (stereo not drawn) (as salt: HCl) [Cpd. 56, N-[(5-chlorofuran-2-yl)(2,4-dimethylphenyl)methyl]-1-(2-methanesulfonyl-2,3-dihydro-1H-isoindol-5-yl)cyclopropane-1-carboxamide] |
| 177 | Cc1ccc(C(NC(=O)C2(c3ccc4c(c3)C(F)(F)C(=O)N4)CC2)c2ccc(C)o2)c(C)c1 (stereo not drawn) (as salt: HCl) [Cpd. 159, 1-(3,3-difluoro-2-oxo-2,3-dihydro-1H-indol-5-yl)-N-[(2,4-dimethylphenyl)(5-methylfuran-2-yl)methyl]cyclopropane-1-carboxamide] |
| 215 | Cc1ccc(C(NC(=O)Cc2ccc3c(c2)CC(=O)N3C)c2ccc(C)o2)c(N2CCCCC2)c1 (stereo not drawn) (as salt: HCl) [Cpd. 38, N-{[4-methyl-2-(piperidin-1-yl)phenyl](5-methylfuran-2-yl)methyl}-2-(1-methyl-2-oxo-2,3-dihydro-1H-indol-5-yl)acetamide] |
| 99 | Cc1ccc(C(NC(=O)C2(c3ccc4c(c3)OCC(=O)N4)CC2)c2ccc(C)o2)c(N(C)C)c1 (stereo not drawn) (as salt: HCl) [Cpd. 156, N-{[2-(dimethylamino)-4-methylphenyl](5-methylfuran-2-yl)methyl}-1-(3-oxo-3,4-dihydro-2H-1,4-benzoxazin-7-yl)cyclopropane-1-carboxamide] |
| 99 | Cc1ccc(C(NC(=O)Cc2ccc3c(c2)C(=O)C(=O)N3C)c2ccc(C)o2)c(N2CCCCC2)c1 (stereo not drawn) (as salt: sodium) [Cpd. 45, 2-(1-methyl-2,3-dioxo-2,3-dihydro-1H-indol-5-yl)-N-{[4-methyl-2-(piperidin-1-yl)phenyl](5-methylfuran-2-yl)methyl}acetamide] |
| 72 | Cc1ccc(C(NC(=O)C2(c3ccc4c(c3)CC(=O)N4C)CC2)c2ccc(C)o2)c(C)c1 (stereo not drawn) (as salt: HCl) [Cpd. 130, N-[(2,4-dimethylphenyl)(5-methylfuran-2-yl)methyl]-1-(1-methyl-2-oxo-2,3-dihydro-1H-indol-5-yl)cyclopropane-1-carboxamide] |
| 65 | Cc1ccc(C(NC(=O)C2(c3ccc4c(c3)OCS(=O)(=O)N4C)CC2)c2ccc(C)o2)c(C)c1 (stereo not drawn) (as salt: HCl) [Cpd. 172, N-[(2,4-dimethylphenyl)(5-methylfuran-2-yl)methyl]-1-(1-methyl-2,2-dioxo-1,3-dihydro-4,2,1-benzoxathiazin-6-yl)cyclopropane-1-carboxamide] |
| 99 | Cc1ccc(C(NC(=O)C2(c3ccc4c(c3)OCC(=O)N4)CC2)c2ccc(Cl)cc2)c(C)c1 (stereo not drawn) (as salt: HCl) [Cpd. 140, N-[(4-chlorophenyl)(2,4-dimethylphenyl)methyl]-1-(3-oxo-3,4-dihydro-2H-1,4-benzoxazin-7-yl)cyclopropane-1-carboxamide] |
| 105 | Cc1ccc(C(NC(=O)Cc2ccc3c(c2)CC(=O)N3)c2ccc(Cl)o2)c(N2CCCCC2)c1 (stereo not drawn) (as salt: HCl) [Cpd. 83, N-[(5-chlorofuran-2-yl)[4-methyl-2-(piperidin-1-yl)phenyl]methyl]-2-(2-oxo-2,3-dihydro-1H-indol-5-yl)acetamide] |
| 209 | Cc1ccc(C(NC(=O)Cc2ccc3[nH]c(C)nc3c2)c2ccc(C)o2)c(Br)c1 (stereo not drawn) (as salt: HCl) [Cpd. 77, N-[(2-bromo-4-methylphenyl)(5-methylfuran-2-yl)methyl]-2-(2-methyl-1H-1,3-benzodiazol-5-yl)acetamide] |
| 73 | Cc1ccc(C(NC(=O)C2(c3ccc4c(c3)CS(=O)(=O)N4C)CC2)c2ccc(C)o2)c(N(C)C)c1 (stereo not drawn) (as salt: HCl) [Cpd. 133, N-{[2-(dimethylamino)-4-methylphenyl](5-methylfuran-2-yl)methyl}-1-(1-methyl-2,2-dioxo-1,3-dihydro-2,1-benzothiazol-5-yl)cyclopropane-1-carboxamide] |
| 130 | Cc1ccc(C(NC(=O)Cc2ccc3c(c2)/C(=N/N)C(=O)N3)c2ccc(C)o2)c(N2CCCCC2)c1 (stereo not drawn) (hydrate or solvate) [Cpd. 84, 2-[(3Z)-3-hydrazinylidene-2-oxo-2,3-dihydro-1H-indol-5-yl]-N-{[4-methyl-2-(piperidin-1-yl)phenyl](5-methylfuran-2-yl)methyl}acetamide] |
